Source: patent publication US20020107197A1, “Ligands for G protein coupled receptors and methods of using them” (priority 2000, published 2002)
Bridges are numbered along the chain shown (N, C = ends). Where no end group is shown, it is not given here.

Columns and labels:
GPR4 [1] = target: T1, GPR4 (Homo sapiens, UniProt P46093); experiment: Cell migration in modified Boyden chamber, GPR4-ires-GFP vs GFP Swiss 3T3 cells; format: cell-based; conditions: for chemokinetic assay: cell motility vs controls: lipid 100 nM in both upper and lower chambers, GFP or GFP-GPR4 Swiss 3T3 cells
T1 construct: were used to generate full length GPR4, which was digested with EcoRI and Xba I and cloned into the pBs3HA vector; expressed in transfected cells
T1 sequence (P46093 whole entry): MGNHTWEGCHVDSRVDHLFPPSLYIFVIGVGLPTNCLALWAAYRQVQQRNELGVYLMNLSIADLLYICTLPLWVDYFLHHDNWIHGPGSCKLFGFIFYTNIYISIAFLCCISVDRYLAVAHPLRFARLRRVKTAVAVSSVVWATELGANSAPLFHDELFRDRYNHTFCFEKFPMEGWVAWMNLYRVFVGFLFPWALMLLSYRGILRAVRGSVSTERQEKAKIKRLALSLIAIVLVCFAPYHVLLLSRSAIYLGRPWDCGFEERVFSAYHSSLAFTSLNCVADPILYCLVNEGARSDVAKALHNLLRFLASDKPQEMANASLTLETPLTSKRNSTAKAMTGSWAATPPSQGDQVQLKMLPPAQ
Procedure: Chemotaxis was measured in a modified Boyden chamber assay. Briefly, different lipids were added to the lower chambers. GPR4-ires-GFP- and GFP-Swiss 3T3 cells were serum starved for 4 h, trypsinized, and seeded in the upper chambers of Boyden-transwell plates (Corning Inc., Corning, N.Y.). The chambers were incubated for 6 to 8 h. The number of cells that migrated to the lower face of the membrane was counted in 4 random fields. Data are represented as the average ±SD of three independent experiments. For the chemokinetic assay, the same concentrations of lipids were added to both the upper and lower chambers. For Rho inhibition studies, C3-exoenxyme was transiently transfected into Swiss 3T3 cells and cell migration assays were performed 48 hours later.

GPR4 [2] = target: T1, GPR4; experiment: SRE luciferase reporter in GPR4-transfected HEK293 cells; format: cell-based; conditions: GPR4 cotransfection
Procedure: (§1) The serum-response element (SRE) reporter system is a sensitive assay for receptors of lipid factors (An et al. (1998) J Biol Chem 273, 7906-7910; An et al. (1999) Mol Pharmacol 55, 787-794). The SRE reporter system used herein (pSRE-Luc) was a gift from Dr. Songzhu An (UCSF), or may be purchased from Stratagene (La Jolla, Calif.). Both systems give identical results. HEK293 and HEK293GPR4 cells were cultured in RPMI1640 with 10% FBS in 10 cm dishes to ˜85% confluence. To the cells in each dish, pSRE-Luc (10 μg) was transfected in the presence of 60 μl LipofectAMINE reagent. Cells were seeded in 96-well plates 16 h after transfection, incubated for another 24 h in RPMI1640 with 10% FBS, and starved in serum-free medium for 16 h. SPC (dissolved in PBS to 10 mM) and other lipids (LPCs were dissolved in 70% ethanol. Other lipids were dissolved in PBS, 70-95% ethanol, or 100% MeOH) were diluted in serum free RPMI 1640 and added to the cells, followed by a 10 h incubation. Luciferase activity was measured in Microlite™ 1 plates (DYNEX Technologies, Inc., Virginia) using 60 μl of cell lysate and 20 μl luciferase substrate. PTX (100 ng/ml) was added during the 16 h serum starvation period and pcDNA1-C3 (encoding the C3-exoenzyme, 2 μg) was co-transfected with pSRE-Luc (10 μg). All experiments were performed in quadruplicate and were repeated at least three times. The Student's t test was performed using the GraphPad Instat software (San Diego, Calif.). p<0.05 was considered to be statistically significant.

[3] = system: vector-transfected HEK293 cells; experiment: SRE luciferase reporter in vector-transfected HEK293 cells; format: cell-based, human
Procedure: as §1

TDAG8 [4] = target: T2, TDAG8 (Homo sapiens, UniProt Q8IYL9); experiment: SRE luciferase reporter in TDAG8-transfected HEK293 cells; format: cell-based; conditions: TDAG8 cotransfection
T2 construct: expressed in transfected cells
T2 sequence (Q8IYL9 whole entry): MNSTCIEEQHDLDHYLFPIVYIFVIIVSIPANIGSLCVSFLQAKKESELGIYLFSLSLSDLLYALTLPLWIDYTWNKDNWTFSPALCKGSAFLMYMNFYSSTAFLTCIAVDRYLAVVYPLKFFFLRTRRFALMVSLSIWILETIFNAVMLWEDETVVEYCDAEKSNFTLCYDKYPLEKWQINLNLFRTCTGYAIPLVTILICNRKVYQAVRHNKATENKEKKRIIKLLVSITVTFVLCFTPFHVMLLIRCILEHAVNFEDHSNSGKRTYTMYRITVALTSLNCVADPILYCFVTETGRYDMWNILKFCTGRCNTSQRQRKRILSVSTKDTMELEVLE

GPR4 [5] = target: T1, GPR4; experiment: Radioligand binding to homogenates of GPR4-transfected CHO cells; conditions: cold competitors, GPR4-transfected CHO cell homogenates
Procedure: (§2) To characterize the binding of SPC and LPC to GPR4 and TDAG8, we conducted radioligand binding assays. CHO cells were chosen for GPR4 binding assays, since HEK293 cells express relatively high levels of endogenous GPR4. CHO cells stably transfected with empty vector or GPR4 were serum starved for 20 h, then collected after exposure to 2 mM EDTA in PBS. The pelleted cells were stored at −80° C. until use. Binding assays were performed essentially as described previously (Xu et al. (2000) Nat Cell Biol 2, 261-267), except binding was performed at 4° C. Briefly, frozen cells (10^6 cells/ml) were homogenized in a binding buffer. Assays were performed in 96-well plates in triplicate with 100 μl cell homogenate (equivalent to 10^5 cells/well). Different amounts of [^3H]SPC or [^3H]16:0-LPC were added to the cell homogenates in 50 μl of binding buffer, in the presence or absence of cold SPC or 16:0-LPC, or other competitors. The plates were incubated at 4° C. for 120 min, unless otherwise indicated. Cell-bound [^3H]SPC or [^3H]LPC was collected onto a filter (Printed Filtermat A, Wallac, Gaithersburg, Md.) using an automated cell harvester (HARVESTER 96, Tomtec, Orange, Conn.). Specific binding was calculated by subtraction of nonspecific binding (binding detected in the presence of 100-fold excess unlabeled SPC or 16:0-LPC) from the total binding.
Cell homogenates were used for binding assays. Binding was conducted at 4° C. for 120 min or as indicated. [^3H]SPC and [^3H]16:0-LPC specifically bound to cell homogenates from GPR4-transfected CHO cells in a time-dependent manner and reached equilibrium after 60 min incubation at 4° C. […] The maximum binding capacities for SPC and 16:0-LPC were 996 fmole/10^5 cells for SPC and 1,528 fmole/10^5 cells for 16:0-LPC. […] Binding assays using [^3H]18:0-LPC gave similar results. We also tested the four glycosphingolipids, Psy, Glu-Sph, Gal-Cer, and Lac-Cer, for their ability to compete for the binding of [^3H]SPC and [^3H]16:0-LPC to GPR4.

HEY ovarian cancer cells = experiment: DNA synthesis / growth of HEY ovarian cancer cells with SPC and phage preparations; format: cell-based, human; conditions: phage mixed with SPC, 30 min incubation
Procedure: To determine if these selected phage clones were capable of blocking a biological effect of SPC, we mixed phage preparations with SPC. After a 30 min incubation, this mixture was added to HEY cells and its effect on SPC-induced cell proliferation was tested. If a phage clone was carrying a specific sequence which binds to SPC, the addition of the phage to SPC could block the effect of SPC on HEY cells.

GPR4 [6] = target: T1, GPR4; experiment: ERK MAP kinase activation (phospho-ERK Western blot) in GPR4-infected Swiss 3T3 cells; format: cell-based; conditions: GPR4-ires-GFP vs GFP Swiss 3T3 cells; SPC and LPC 100 nM
Procedure: MAP kinases are key signaling intermediates of DNA synthesis and cell proliferation. Swiss 3T3 cells were infected with MSCV GPR4-ires-GFP or MSCV ires-GFP, and subsequently cells sorted by FACS for positive expression of GFP as described previously (Kabarowski et al. (2000) Proc Natl Acad Sci USA. 97, 12109-12114). Cells were plated in 6-well plates in DMEM containing 5% FBS, serum-starved overnight, and then treated lipids in DMEM for the indicated times. Cells were lysed on ice in RIPA buffer containing 50 mM Tris-HCl, pH 7.5, 1% Nonidet P-40, 0.5% deoxycholate,0.1% SDS, 150 mM NaCl, 2 mM EGTA, 25 mM sodium fluoride, 1 mM sodium orthovanadate, and 1× protease inhibitors (Sigma P8340). Lysates containing equal amounts of protein were separated on 10% SDS-polyacrylamide gels and transferred onto nitrocellulose membranes. Antibodies against phosphorylated ERK1/2 (Cell Signaling Technologies; Beverly, Mass.) were used to probe the membrane and the ECL system (Amersham) was used for detection. To normalize the amounts of protein loaded in each lane, membranes were stripped and re-probed with antibodies against total ERK (Cell Signaling Technologies). In some experiments, cells were pretreated with 100 ng/ml PTX for 12-16 h prior to SPC and LPC stimulation.

TDAG8 [7] = target: T2, TDAG8; experiment: TDAG8 receptor internalization; format: cell-based
From the text: G protein coupled receptors undergo agonist-dependent desensitization and internalization.

TDAG8 [8] = target: T2, TDAG8; experiment: Binding of phospholipids to TDAG8
Procedure: as §2
Using functional and binding assays, we have identified the ligands for TDAG8.

GPR4 [9] = target: T1, GPR4; experiment: Internalization of GPR4-GFP in HEK293 cells (confocal microscopy); format: cell-based; conditions: 1 μM lipid, 37° C., GPR4-GFP HEK293 cells
Procedure: pGPR4-GFP stably expressing HEK293 cells were cultured in 6 cm tissue culture dishes in RPMI1640 with 10% FBS. After 16-24 h serum starvation, cells were treated with different lipids at 37° C. for 2 h. Cells were washed with cold PBS and fixed with 4% paraformaldehyde in PBS. The subcellular localization of GPR4-GFP protein was visualized under a Leica TV confocal fluorescence microscope with a 63× oil immersion lens (Wetzler, Heidelberg, Germany). The excitation and emission wavelengths were 488 nm and 515-540 nm, respectively.
G protein coupled receptors undergo agonist-dependent desensitization and internalization. When HEK293 cells are transfected with the pEGFP-N1 vector, GFP protein is expressed in the cytosol of the cells. The GPR4-GFP and TDAG8-GFP fusion proteins, on the other hand, was expressed only on the plasma membrane.

Compound	cell migration in GPR4- vs. vector-transfected cells (in words) (GPR4 [1])	chemokinetic assay: cell motility vs controls (GPR4 [1])	transcriptional activation of SRE (in words) (GPR4 [2])	transcriptional activation of SRE (in words) [3]	transcriptional activation of SRE (in words) (TDAG8 [4])	competition for binding of [3H]SPC and [3H]16:0-LPC to GPR4 (GPR4 [5])	effect of phage on the growth inhibitory effect of SPC (HEY ovarian cancer cells)	effect of phage on the growth inhibitory effect of SPC (HEY ovarian cancer cells; listed as clone 414)	effect of phage on the growth inhibitory effect of SPC (HEY ovarian cancer cells; listed as phage 414)	GPR4-dependent ERK activation (in words) (GPR4 [6])	TDAG8 receptor internalization (TDAG8 [7])	binding to TDAG8 (TDAG8 [8])	internalization of GPR4 (GPR4 [9])
lysophosphatidic acid [LPA]	did not alter cell migration	did not show a significant effect	not altered	induced significant transcriptional activation of SRE	not altered	not							
Cys-His-Thr-Gln-Ala-Asp-Ser-Cys (CHTQADSC; disulfide 1-8) [#414]							able to inhibit the growth inhibitory effect of SPC on HEY cells	inverted the growth inhibitory effect of SPC	blocked the growth inhibitory effect of SPC on DNA synthesis				
CCCCCCCCCCCCC/C=C/[C@@H](O)[C@@H](N)COP(=O)(O)O [S1P, sphingosine-1-phosphate]	did not alter cell migration	slightly inhibited	not altered	induced significant transcriptional activation of SRE	not altered	not				activation was independent of GPR4 expression			
platelet activating factor [PAF]	did not alter cell migration	slightly enhanced	none of them induced significant transcriptional activation of SRE			not				activation was independent of GPR4 expression	induced TDAG8 receptor internalization	able to bind to TDAG8	not
